Test results as given in patent US8629164B2, “Inhibitors of NF-κB” (Profectus Biosciences, Inc., priority 2009, dated 2014).
pEC50: −log10 of the molar value. Counter-ions that a name gives are not always drawn.

Columns and labels:
RelB = target: T1, RelB (Homo sapiens, UniProt Q01201); test: TransAM NF-κB Family DNA Binding ELISA, RelB; conditions: for inhibition at 5 µM: read-out: RelB binding % inhibit. at 5 uM, at 5 uM; for IC50: RelB binding IC50 (uM), cells without % sign
T1 sequence (Q01201 1-579): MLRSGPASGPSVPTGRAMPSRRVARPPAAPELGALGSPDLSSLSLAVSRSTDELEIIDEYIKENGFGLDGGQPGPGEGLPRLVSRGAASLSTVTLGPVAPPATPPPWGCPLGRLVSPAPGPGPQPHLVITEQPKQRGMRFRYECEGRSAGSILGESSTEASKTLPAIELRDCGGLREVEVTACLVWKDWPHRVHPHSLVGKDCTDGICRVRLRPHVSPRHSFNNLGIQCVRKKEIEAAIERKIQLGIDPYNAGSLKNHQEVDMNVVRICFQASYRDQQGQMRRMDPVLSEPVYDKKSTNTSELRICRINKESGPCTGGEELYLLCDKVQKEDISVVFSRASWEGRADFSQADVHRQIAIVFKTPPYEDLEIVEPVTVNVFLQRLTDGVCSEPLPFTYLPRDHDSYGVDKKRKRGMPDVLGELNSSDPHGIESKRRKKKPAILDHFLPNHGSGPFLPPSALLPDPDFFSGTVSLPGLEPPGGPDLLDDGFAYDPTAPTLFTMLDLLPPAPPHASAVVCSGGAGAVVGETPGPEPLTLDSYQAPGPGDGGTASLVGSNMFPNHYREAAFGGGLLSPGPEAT
T1 sequence (Q00653 1-454 partner limits assumed): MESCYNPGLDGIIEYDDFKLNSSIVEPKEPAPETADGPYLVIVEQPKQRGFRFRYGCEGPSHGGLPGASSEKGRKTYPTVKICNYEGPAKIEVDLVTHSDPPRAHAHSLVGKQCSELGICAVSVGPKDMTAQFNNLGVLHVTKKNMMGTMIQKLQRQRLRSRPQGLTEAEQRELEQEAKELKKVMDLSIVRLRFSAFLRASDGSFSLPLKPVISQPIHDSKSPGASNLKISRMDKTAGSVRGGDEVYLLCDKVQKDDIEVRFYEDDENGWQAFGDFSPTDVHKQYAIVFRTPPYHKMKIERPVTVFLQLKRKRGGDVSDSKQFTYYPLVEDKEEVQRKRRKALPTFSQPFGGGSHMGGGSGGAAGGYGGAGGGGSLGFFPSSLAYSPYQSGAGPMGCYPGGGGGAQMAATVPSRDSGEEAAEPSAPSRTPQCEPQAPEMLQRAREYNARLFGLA
Description: (§2) Treated samples were then transferred to 30 μL Complete Binding Buffer (with DTT) in microplate wells pre-coated with the NF-κB consensus oligonucleotide. […] The plate was incubated for 1 hour at room temperature with gentle shaking and then washed 3 times with 200 μL 1× Wash Buffer. NF-κB p65, p50, p52, RelB, or c-Rel subunits bound to the plate were detected with 100 μL of the primary antibody (diluted 1:1000 in 1× Antibody Buffer) specific for that subunit. The plate was incubated for 1 hour at room temperature and then washed 3 times with 200 μL 1× Wash Buffer. Next, 100 μL of a HRP conjugated goat anti-rabbit antibody (diluted 1:1,000 in 1× Antibody Buffer) was added to each well. The plate was incubated for 1 hour at room temperature and then washed 4 times with 200 μL 1× Wash Buffer. 100 μL of room temperature Developing Solution was added to each well. The reaction was allowed to develop for 2-10 minutes until a medium dark blue color developed (depending on the subunit activity in the lot of extract or lot of recombinant protein used) and then the reaction was stopped with 100 μL Stop Solution yielding a yellow color. Absorbance was recorded using a Becton-Dickinson DTX 880 Multimode Detector at 450 nm with a reference wavelength subtracted at 620 nm.

NF-κB [1] = test: 293-cell pTRH1-NF-κB-dscGFP reporter assay, TNF-α induced; format: cell-based; conditions: Homo sapiens, HEK293, HEK293 cells, NF-κB driven GFP expression; read-out: NF-kB/293/GFP EC50
Description: (§1) Inhibition of NF-κB in cells by the compound of Example 1. Two reporter cell assays were used to determine the ability of the compound of Example 1 to inhibit NE-KB driven transcription. The first assay was a 293-cell based assay with a stably integrated pNF-κB-luc reporter plasmid containing 3 NF-κB promoter elements. The second assay was a 293-cell based assay with a stably integrated pTRH1-NF-κB-dscGFP reporter containing 4 NF-κB promoter elements. Cells were treated with 0, 0.2, 1, 10, 20 and 40 μM of the compound of Example 1 for 2 hours then were induced with 20 ng/ml TNF-α for 18 hours. Following the induction, luminescence or fluorescence was quantified using a Beckman-Coulter 2300 plate reader. […] These values represent the median value generated from three independent experiments±the standard error. As a control, 0.5% DMSO treated and untreated cells were compared to verify that the Example 1 carrier had no effect on the expression of luciferase or in the readout of the assay. There was a slight decrease in the output from the assay in the DMSO treated population although it was not statistically significant. As a result of the controls, the decrease in activity in the drug treated samples was compared to the DMSO control sample.

NF-κB [2] = test: 293-cell pNF-κB-luc reporter assay, TNF-α induced; format: cell-based; conditions: HEK293 cells, NF-κB driven luciferase expression, read-out: 293/NFkB-luc EC50
Description: as §1

[3] = test system: IL-6 release from RAW264.7 cells; test: IL-6 release from LPS stimulated RAW264.7 cells; format: cell-based, mouse
Description: Specifically, A and B show the effects of the compound of Example 1 on soluble PGE2 and Il-6 secretion from RAW264.7 cells stimulated by 1 μg/mL of LPS. The cells were treated with the indicated concentrations of the compound of Example 1 for 2 hours, and then LPS was added and incubation continued for 4 hours. […]

c-Rel = target: T2, c-Rel (Homo sapiens, UniProt Q04864); test: TransAM NF-κB Family DNA Binding ELISA, c-Rel; conditions: for inhibition at 5 µM: read-out: c-Rel binding % inhibit. at 5 uM, at 5 uM; for IC50: c-Rel binding IC50 (uM), cells without % sign
T2 sequence (Q04864 2-619 limits assumed): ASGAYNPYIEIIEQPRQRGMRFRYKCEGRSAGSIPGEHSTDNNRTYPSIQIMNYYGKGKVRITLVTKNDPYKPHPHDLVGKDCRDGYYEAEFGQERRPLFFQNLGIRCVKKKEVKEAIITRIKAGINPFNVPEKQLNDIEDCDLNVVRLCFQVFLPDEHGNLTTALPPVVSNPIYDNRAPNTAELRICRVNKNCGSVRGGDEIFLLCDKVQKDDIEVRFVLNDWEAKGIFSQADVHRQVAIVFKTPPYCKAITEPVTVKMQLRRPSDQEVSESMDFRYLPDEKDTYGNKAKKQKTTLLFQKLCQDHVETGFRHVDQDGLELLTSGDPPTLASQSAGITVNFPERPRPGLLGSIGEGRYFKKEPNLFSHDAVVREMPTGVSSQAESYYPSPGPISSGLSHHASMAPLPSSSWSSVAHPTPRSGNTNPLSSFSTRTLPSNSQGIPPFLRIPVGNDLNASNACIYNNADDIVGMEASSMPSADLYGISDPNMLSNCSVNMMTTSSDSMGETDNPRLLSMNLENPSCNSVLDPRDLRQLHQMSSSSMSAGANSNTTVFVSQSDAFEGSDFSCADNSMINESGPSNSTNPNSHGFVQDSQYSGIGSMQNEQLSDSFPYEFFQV
Description: as §2

p50 = target: T3, p50 (Homo sapiens, UniProt P19838); test: TransAM NF-κB Family DNA Binding ELISA, p50; conditions: for IC50: p50 binding IC50 (uM), cells without % sign; for inhibition at 5 µM: read-out: p50 binding % inhibit. at 5 uM
T3 sequence (P19838 1-433 limits assumed): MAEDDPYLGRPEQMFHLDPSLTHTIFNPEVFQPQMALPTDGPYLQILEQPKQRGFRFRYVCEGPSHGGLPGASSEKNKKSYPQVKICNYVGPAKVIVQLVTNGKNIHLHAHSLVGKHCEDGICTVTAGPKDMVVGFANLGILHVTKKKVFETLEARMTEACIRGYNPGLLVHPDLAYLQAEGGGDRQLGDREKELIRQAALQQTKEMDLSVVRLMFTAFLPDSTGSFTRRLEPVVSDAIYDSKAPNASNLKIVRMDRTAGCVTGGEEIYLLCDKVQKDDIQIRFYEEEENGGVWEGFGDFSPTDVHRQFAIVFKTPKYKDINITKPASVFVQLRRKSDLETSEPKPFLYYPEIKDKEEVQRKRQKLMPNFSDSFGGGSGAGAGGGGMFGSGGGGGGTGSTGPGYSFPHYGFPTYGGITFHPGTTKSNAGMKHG

p52 = target: T4, p52 (Homo sapiens, UniProt Q00653); test: TransAM NF-κB Family DNA Binding ELISA, p52; conditions: for IC50: p52 binding IC50 (uM), cells without % sign; for inhibition at 5 µM: read-out: p52 binding % inhibit. at 5 uM, at 5 uM
T4 sequence (Q00653 1-454 limits assumed): T1 sequence (Q00653 1-454 partner limits assumed)

p65 (RelA) = p65 (RelA) (Homo sapiens, UniProt Q04206); test: TransAM NF-κB Family DNA Binding ELISA, p65; conditions: p65 binding IC50 (uM), binding to NF-κB sites
Description: as §2

[4] = Mus musculus, RAW264.7, RAW 264.7 cells
[5] = RAW 264.7 cells, trifluoroacetate

p65 (RelA), sequence (Q04206 whole entry): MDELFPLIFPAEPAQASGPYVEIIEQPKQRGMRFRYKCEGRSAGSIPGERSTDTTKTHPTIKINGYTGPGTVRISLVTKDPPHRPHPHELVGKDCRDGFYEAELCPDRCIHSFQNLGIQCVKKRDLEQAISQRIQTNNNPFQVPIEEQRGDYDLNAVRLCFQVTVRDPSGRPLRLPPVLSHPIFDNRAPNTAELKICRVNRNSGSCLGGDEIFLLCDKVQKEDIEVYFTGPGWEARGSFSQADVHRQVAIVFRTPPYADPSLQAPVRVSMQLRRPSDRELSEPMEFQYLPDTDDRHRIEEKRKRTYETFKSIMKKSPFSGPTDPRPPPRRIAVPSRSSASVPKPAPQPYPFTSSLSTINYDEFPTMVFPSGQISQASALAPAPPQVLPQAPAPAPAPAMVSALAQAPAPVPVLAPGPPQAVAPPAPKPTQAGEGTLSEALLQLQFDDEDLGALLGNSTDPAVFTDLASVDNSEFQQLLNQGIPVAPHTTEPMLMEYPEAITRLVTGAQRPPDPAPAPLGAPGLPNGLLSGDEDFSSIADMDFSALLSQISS

Row | inhibition at 5 µM (RelB) [%] | pEC50 (NF-κB [1]) | pEC50 (NF-κB [2]) | pEC50 [3, 4] | inhibition at 5 µM (c-Rel) [%] | IC50 (p50) [µM] | IC50 (p52) [µM] | IC50 (p65 (RelA)) [µM] | IC50 (RelB) [µM] | IC50 (c-Rel) [µM] | pEC50 ([3]; RAW 264.7 cells) | inhibition at 5 µM (p50) [%] | inhibition at 5 µM (p52) [%] | RelB binding % inhibit. at 5 uM (RelB) [%] | c-Rel binding % inhibit. at 5 uM (c-Rel) [%] | pEC50 (NF-κB [2]; trifluoroacetate) | pEC50 [3, 5] | p52 binding % inhibit. at 5 uM (p52; at 5 uM) [%] | SMILES
1 | 21 | 4.40 | < 4.29 | < 4.29 | 23 | 118 | 365 | 5 |  |  |  |  |  |  |  |  |  |  | O=C(NC1=CC(=O)C2OC2C1O)c1cnccc1O (racemic) [Example 4, (±)-4-hydroxy-N-(2-hydroxy-5-oxo-7-oxa-bicyclo[4.1.0]hept-3-en-3-yl)-nicotinamide]
2 |  | 4.96 | 4.80 | 5.80 |  | 246 | 84 | 4.7 | 12 | 14 |  |  |  |  |  |  |  |  | COc1nccnc1C(=O)NC1=CC(=O)C2OC2C1O (racemic) [Example 26, (±)-3-methoxy-pyrazine-2-carboxylic acid (2-hydroxy-5-oxo-7-oxa-bicyclo[4.1.0]hept-3-en-3-yl)-amide]
3 | 29 | 5.11 | 5.02 |  | 40 |  |  | 5.8 |  |  | 5.85 | 1 | 18 |  |  |  |  |  | COc1cccnc1C(=O)NC1=CC(=O)C2OC2C1O (racemic) [Example 20, (±)-3-methoxy-pyridine-2-carboxylic acid (2-hydroxy-5-oxo-7-oxa-bicyclo[4.1.0]hept-3-en-3-yl)-amide]
4 |  | 5.66 | 6.34 | 6.80 |  | 129 | 59 | 4.5 | 12 | 11 |  |  |  |  |  |  |  |  | COc1c(C(=O)NC2=CC(=O)C3OC3C2O)ccc2cccnc12 (racemic) [Example 29, (±)-N-(2-hydroxy-5-oxo-7-oxabicyclo[4.1.0]hept-3-en-3-yl)-8-methoxyquinoline-7-carboxamide]
5 |  | 6.08 | 5.39 | 6.89 |  | 1.2 | 4.7 | 1.1 | 0.65 | 0.49 |  |  |  |  |  |  |  |  | COc1nc2ccccc2cc1C(=O)NC1=CC(=O)C2OC2C1O (racemic) [Example 25, (±)-2-methoxy-quinoline-3-carboxylic acid (2-hydroxy-5-oxo-7-oxa-bicyclo[4.1.0]hept-3-en-3-yl)-amide]
6 |  | 5.47 | 4.82 |  |  | > 636 | 301 |  |  |  | 5.85 |  |  | 0 | 15 |  |  |  | O=C(NC1=CC(=O)C2OC2C1O)c1ncccc1O (racemic) [Example 3, (±)-3-hydroxy-N-(2-hydroxy-5-oxo-7-oxabicyclo[4.1.0]hept-3-en-3-yl)picolinamide]
7 |  | 5.38 | 5.57 | 6.72 |  | 20 | 9.6 | 3 | 3 | 4.5 |  |  |  |  |  |  |  |  | O=C(NC1=CC(=O)C2OC2C1=O)c1cc2ccccc2nc1O (racemic) [Example 28, (±)-N-(2,5-dioxo-7-oxabicyclo[4.1.0]hept-3-en-3-yl)-2-hydroxyquinoline-3-carboxamide]
8 | 18 | 5.24 | 4.82 | 5.11 | 40 |  |  | 4.6 |  |  |  | 4 | 9 |  |  |  |  |  | O=C(NC1=CC(=O)C2OC2C1O)c1cnc(N2CCCCC2)nc1O (racemic) [Example 11, (±)-4-hydroxy-2-piperidin-1-yl-pyrimidine-5-carboxylic acid (2-hydroxy-5-oxo-7-oxa-bicyclo[4.1.0]hept-3-en-3-yl)-amide]
9 |  |  |  |  |  |  |  |  |  |  |  |  |  | 10 | 15 | 5.04 | 5.85 | 0 | O=C(NC1=CC(=O)C2OC2C1O)c1ncccc1O.O=C(O)C(F)(F)F (racemic) [Example 13, (±)-3-hydroxy-N-(2-hydroxy-5-oxo-7-oxabicyclo[4.1.0]hept-3-en-3-yl)picolinamide trifluoroacetate]
10 |  |  |  |  |  | 22 | 22 | 0.55 | 1.5 | 1.1 |  |  |  |  |  | 5.24 | 6.42 |  | COc1ncccc1C(=O)NC1=CC(=O)C2OC2C1O (racemic) [Example 21, (±)-N-(2-hydroxy-5-oxo-7-oxa-bicyclo[4.1.0]hept-3-en-3-yl)-2-methoxy-nicotinamide trifluoroacetate]
